Laboratory results published in PubChem BioAssay AID248 (DTP/NCI, 2004).
Where “and” joins values, the source holds several entries; their conditions need not be identical. Equal entries are not always repeated. Inconclusive results and toxic doses are left out. No stated cut-off is given here; in the data, active means T/C of 150% or more; inactive means T/C below 125%.

Test system: L1210 leukemia ip in BDF1 mice, survival T/C
Assay: NCI In Vivo Anticancer Drug Screen. Data for tumor model L1210 Leukemia (intraperitoneal) in B6D2F1 (BDF1) mice
Conditions: endpoint: mean survival time, higher = longer survival
Method in brief: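 Value reflects the ratio of survival in compound-treated mice to survival in vehicle-treated controls, with both groups carrying the same transplanted tumor.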

[1] = dose: 100.0 mg/kg/injection, schedule: Q01DX001 (ip), vehicle: carboxymethylcellulose (CMC)
[2] = dose: 200.0 mg/kg/injection, schedule: Q01DX001 (ip), vehicle: carboxymethylcellulose (CMC)
[3] = dose: 400.0 mg/kg/injection, schedule: Q01DX001 (ip), vehicle: carboxymethylcellulose (CMC)
[4] = dose: 100.0 mg/kg/injection, schedule: Q04DX003 (ip), vehicle: Klucel (hydroxypropylcellulose) (HPC)
[5] = dose: 200.0 mg/kg/injection, schedule: Q04DX003 (ip), vehicle: Klucel (hydroxypropylcellulose) (HPC)
[6] = dose: 400.0 mg/kg/injection, schedule: Q04DX003 (ip), vehicle: Klucel (hydroxypropylcellulose) (HPC)
[7] = dose: 50.0 mg/kg/injection, schedule: Q01DX009 (ip), vehicle: Klucel (hydroxypropylcellulose) (HPC)
[8] = dose: 100.0 mg/kg/injection, schedule: Q01DX009 (ip), vehicle: Klucel (hydroxypropylcellulose) (HPC)
[9] = dose: 200.0 mg/kg/injection, schedule: Q01DX009 (ip), vehicle: Klucel (hydroxypropylcellulose) (HPC)
[10] = dose: 50.0 mg/kg/injection, schedule: Q04DX003 (ip), vehicle: saline
[11] = dose: 100.0 mg/kg/injection, schedule: Q04DX003 (ip), vehicle: saline
[12] = dose: 100.0 mg/kg/injection, schedule: Q04DX002 (ip), vehicle: Klucel (hydroxypropylcellulose) (HPC)
[13] = dose: 200.0 mg/kg/injection, schedule: Q04DX002 (ip), vehicle: Klucel (hydroxypropylcellulose) (HPC)
[14] = dose: 400.0 mg/kg/injection, schedule: Q04DX002 (ip), vehicle: Klucel (hydroxypropylcellulose) (HPC)

Measured: T/C

CCCCCN(CCCCC)C(=O)CCCC
inactive: [1] 115 % of control | dose: 100.0 mg/kg/injection, schedule: Q01DX009 (ip), vehicle: carboxymethylcellulose (CMC) 93 % of control and 97 % of control | dose: 100.0 mg/kg/injection, schedule: Q04DX002 (ip), vehicle: carboxymethylcellulose (CMC) 101 % of control and 105 % of control | dose: 100.0 mg/kg/injection, schedule: Q04DX003 (ip), vehicle: carboxymethylcellulose (CMC) 97 % of control | [2] 101 % of control | dose: 200.0 mg/kg/injection, schedule: Q01DX009 (ip), vehicle: carboxymethylcellulose (CMC) 100 % of control and 102 % of control | dose: 200.0 mg/kg/injection, schedule: Q04DX002 (ip), vehicle: carboxymethylcellulose (CMC) 98 % of control and 103 % of control | dose: 200.0 mg/kg/injection, schedule: Q04DX003 (ip), vehicle: carboxymethylcellulose (CMC) 95 % of control | [3] 100 % of control | dose: 400.0 mg/kg/injection, schedule: Q01DX009 (ip), vehicle: carboxymethylcellulose (CMC) 97 % of control and 86 % of control | dose: 400.0 mg/kg/injection, schedule: Q04DX002 (ip), vehicle: carboxymethylcellulose (CMC) 98 % of control and 87 % of control | dose: 400.0 mg/kg/injection, schedule: Q04DX003 (ip), vehicle: carboxymethylcellulose (CMC) 100 % of control

C=CCN(CC=C)S(=O)(=O)c1cccc(C(=O)O)c1
inactive: [4] 103 % of control | [5] 92 % of control | [6] 105 % of control

CC[N+](C)(C)CCCNC(=O)C12CC3CC(CC(C3)C1)C2
inactive: dose: 25.0 mg/kg/injection, schedule: Q04DX002 (ip), vehicle: saline 99 % of control | dose: 50.0 mg/kg/injection, schedule: Q04DX002 (ip), vehicle: saline 96 % of control

O=C(O)c1ccc(N=Nc2nc3[nH]c(=O)[nH]c(=O)c3[nH]2)cc1
inactive: [7] 97 % of control | [8] 97 % of control | [9] 87 % of control

COc1ccccc1NC1=C(NC(C)=O)C(=O)c2ccccc2C1=O
inactive: dose: 100.0 mg/kg/injection, schedule: Q04DX003 (ip), vehicle: saline with Tween-80 95 % of control | dose: 200.0 mg/kg/injection, schedule: Q04DX003 (ip), vehicle: saline with Tween-80 95 % of control | dose: 400.0 mg/kg/injection, schedule: Q04DX003 (ip), vehicle: saline with Tween-80 97 % of control

CC1([N+](=O)[O-])COP(=O)(OP2(=O)OCC(C)([N+](=O)[O-])CO2)OC1 (stereo not given)
inactive: [1] 108 % of control | [2] 101 % of control | [3] 103 % of control

O=[N+]([O-])c1ccc(S)c(Cl)c1
inactive: dose: 12.5 mg/kg/injection, schedule: Q01DX009 (ip), vehicle: Klucel (hydroxypropylcellulose) (HPC) 104 % of control | dose: 25.0 mg/kg/injection, schedule: Q01DX009 (ip), vehicle: Klucel (hydroxypropylcellulose) (HPC) 104 % of control

O=S(=O)(F)/C=C\c1ccccc1
inactive: dose: 25.0 mg/kg/injection, schedule: Q01DX009 (ip), vehicle: acetone 92 % of control | dose: 100.0 mg/kg/injection, schedule: Q01DX001 (ip), vehicle: acetone 95 % of control | dose: 200.0 mg/kg/injection, schedule: Q01DX001 (ip), vehicle: acetone 104 % of control

CCNc1ccccc1-c1nc2ccccc2[nH]1
inactive: [7] 93 % of control | [8] 100 % of control | [9] 102 % of control

C[S+](C)Cc1ccc(C(=O)Oc2ccc([N+](=O)[O-])cc2)cc1
inactive: dose: 25.0 mg/kg/injection, schedule: Q01DX009 (ip), vehicle: saline 100 % of control | dose: 25.0 mg/kg/injection, schedule: Q04DX003 (ip), vehicle: saline 97 % of control | dose: 50.0 mg/kg/injection, schedule: Q01DX009 (ip), vehicle: saline 98 % of control | [10] 100 % of control | dose: 100.0 mg/kg/injection, schedule: Q01DX009 (ip), vehicle: saline 96 % of control and 102 % of control | [11] 100 % of control and 101 % of control | dose: 200.0 mg/kg/injection, schedule: Q01DX009 (ip), vehicle: saline 87 % of control

N/C(=N\Nc1ccccc1)N[N+](=O)[O-]
inactive: dose: 175.0 mg/kg/injection, schedule: Q01DX001 (ip), vehicle: acetone 100 % of control | dose: 265.0 mg/kg/injection, schedule: Q01DX001 (ip), vehicle: acetone 96 % of control | dose: 400.0 mg/kg/injection, schedule: Q01DX001 (ip), vehicle: acetone 94 % of control | dose: 600.0 mg/kg/injection, schedule: Q01DX001 (ip), vehicle: acetone 104 % of control

CC1(CCN2CCC3(CC2)C(=O)NCN3c2ccccc2)Oc2ccccc2O1
inactive: [4] 104 % of control | [5] 111 % of control | [6] 93 % of control

CC(=O)C(C(C)=O)C(C)=O.CC(=O)C(C(C)=O)C(C)=O.CC(=O)C(C(C)=O)C(C)=O.[Cr]
inactive: dose: 50.0 mg/kg/injection, schedule: Q01DX001 (ip), vehicle: carboxymethylcellulose (CMC) 100 % of control | [1] 94 % of control | [2] 105 % of control | [3] 100 % of control

COc1ccc(N=Cc2cc(Br)cc(Br)c2O)cc1.COc1ccc(N=Cc2cc(Br)cc(Br)c2O)cc1.[Co]
inactive: [10] 92 % of control | [11] 92 % of control | dose: 200.0 mg/kg/injection, schedule: Q04DX003 (ip), vehicle: saline 95 % of control

COc1ccc(/C(C)=N\NC(N)=O)cc1
inactive: dose: 50.0 mg/kg/injection, schedule: Q04DX002 (ip), vehicle: Klucel (hydroxypropylcellulose) (HPC) 111 % of control | [12] 105 % of control | [13] 94 % of control | [14] 99 % of control

Cc1cccc(C)c1NC(N)=S
inactive: [4] 98 % of control | [5] 90 % of control

CC(C)=C(Br)Br
inactive: dose: 75.0 mg/kg/injection, schedule: Q01DX001 (ip), vehicle: saline 94 % of control | dose: 150.0 mg/kg/injection, schedule: Q01DX001 (ip), vehicle: saline 94 % of control | dose: 300.0 mg/kg/injection, schedule: Q01DX001 (ip), vehicle: saline 96 % of control

NCCc1cn(C2OC(CO)C(O)C(O)C2O)c2ccccc12 (stereo not given)
inactive: dose: 25.0 mg/kg/injection, schedule: Q01DX005 (ip), vehicle: saline 96 % of control and 106 % of control | dose: 50.0 mg/kg/injection, schedule: Q01DX005 (ip), vehicle: saline 96 % of control | dose: 100.0 mg/kg/injection, schedule: Q01DX005 (ip), vehicle: saline 109 % of control and 87 % of control

COC(=O)c1cccc(C)c1NC(=O)NCCCl
inactive: [4] 96 % of control | [5] 96 % of control | [6] 94 % of control

CCOC(=O)C(C(=O)Nc1ccccc1)C(=O)OCC
inactive: [8] 99 % of control | [4] 90 % of control | [9] 100 % of control | [5] 93 % of control | dose: 400.0 mg/kg/injection, schedule: Q01DX009 (ip), vehicle: Klucel (hydroxypropylcellulose) (HPC) 105 % of control | [6] 98 % of control

CCCS(=O)(=O)N1CCC(C)CC1
inactive: [12] 102 % of control | [13] 97 % of control | [14] 97 % of control

COP(=O)(CN1C(=O)c2ccccc2C1=O)c1ccccc1 (stereo not given)
inactive: [12] 94 % of control | [13] 94 % of control | [14] 101 % of control

Cc1nc2ccccc2n(O)c1=O
inactive: [7] 97 % of control | [8] 93 % of control | [9] 89 % of control
